Laboratory results: PMC11930985 (Nature Communications, 2025)

Experiments:
AML/MDS patients [1] = experiment: Dose-limiting toxicity assessment, 3+3 dose escalation; assay type: in vivo
Text: The study consisted of a phase 1b dose escalation, followed by a phase 2a cohort expansion. […] Due to the introduction of an enhanced formulation, the study was extended with a second dose escalation cohort following a 3 + 3 study design, also with expansion at the selected dose (Fig. 1).
The conventional 3 + 3 study design gives a 71% chance of escalation if the true but unknown rate of DLT is 20%, and <50% chance of escalation if the true but unknown rate of DLT is >30%. […] Based on a one-sided, within-group test of proportions comparing an anticipated ORR of >20% against the null hypothesis rate of 5%, with power 80% and type I error 0.2 (suitable as evidence of a trend worthy of future study), a sample size of up to 14 evaluable patients was selected for B2. On the same basis, for B5 an initial sample size of 14 relapsed and 14 refractory AML patients was planned. However, upon regulatory review by the FDA, this was reduced to 20 R/R AML patients with 4 refractory AML patients. For this early-stage study, the efficacy analyses are secondary endpoints, and no account was taken of the multiplicity inherent in the assessment of several, presumably non-independent criteria, for ORR.

monkeys = test system: monkeys; set-up: method as in Investigator's Brochure (IB) version 5.0; details: ref Investigator's Brochure (IB) version 5.0, cited from earlier work
AML/MDS patients [2] = experiment: Response assessment (ELN AML / modified IWG MDS criteria): ORR, DCR; assay type: in vivo, human
Protocol: All patients underwent baseline disease assessments at screening (peripheral blood and bone marrow (BM)). Efficacy was assessed according to the blast percentage in a peripheral blood and BM aspirate sample, measurement of absolute neutrophil count, measurement of platelet count, and red cell transfusion requirement according to the European LeukemiaNet[37] response criteria for AML and the modified IWG response criteria for MDS[38]. Response criteria used are summarized in Supplementary Table 4.
Response assessments (peripheral blood and BM) were performed at Cycle 2 Day 1 (pre-dose), Cycle 4 Day 1 (pre-dose) and repeated every 3 cycles thereafter or when clinically indicated. Patients who completed 12 months of study treatment and had not experienced progressive disease (PD) underwent response assessment every 5 cycles until PD was confirmed. Efficacy endpoints were: Objective response rate (ORR), defined as the number of patients with CR, CRi, MLFS, MR or PR divided by the total number of patients in the cohort/group; Disease control rate (DCR), defined as the number of patients with CR, CRi, MLFS, MR, PR or unchanged disease for at least three cycles (considered to have stable disease (SD)) divided by the total number of patients in the cohort/group; Overall survival (OS), defined as (date of death or censoring) – (date of the first study treatment) +1. Censoring date was the last date the patient was known to be alive; Event free survival (EFS), defined as (earliest of date of death, date of progression or date of censoring) – (date of the first study treatment) +1, with event defined as death or progression. Patients who started a new anti-cancer treatment before documented progression were censored at the date of the last assessment prior to start of non-protocol treatment. […] Patients who were alive without documented progression on the last day of contact were censored at the date of the last assessment.

Flt4 = test system: Flt4; set-up: method as in Investigator's Brochure (IB) version 5.0; details: ref Investigator's Brochure (IB) version 5.0; cited from earlier work
OCI-AML5 xenograft = test system: OCI-AML5 xenograft; set-up: method as in Investigator's Brochure (IB) version 5.0; details: ref Investigator's Brochure (IB) version 5.0; cited from earlier work

## Nc1nc(Nc2ccc3c(c2)CC[C@@H](N2CCCC2)CC3)nn1-c1cc2c(nn1)-c1ccccc1CCC2 [Bemcentinib]
AML/MDS patients [1]; DE cohort
  Formal criteria for a maximum tolerated dose: not met
AML/MDS patients [1]; human, in vivo, 3 weeks
  Recommended phase 2 dose (loading/maintenance): 400/200
AML/MDS patients [1]; in vivo
  Dose-limiting toxicities (DLT) observed: Three
monkeys; 7.5 mg/kg and 15 mg/kg single oral
  QTc change compared to vehicle control and pre-dose values: below 10%
monkeys; 7.5 mg/kg – 60 mg/kg single oral
  Heart rate: recoverable, non-adverse decreases
monkeys; highest dose level (60 mg/kg single oral)
  Magnitude of the QTc effect: 17%
AML/MDS patients [2]; DE 200/100 mg, N=4
  CR: 0 n (%)
  CRi: 0 n (%)
  MLFS: 0 n (%)
  MR (marrow response): 0 n (%)
  NE (not evaluable): 1 (25%) n (%)
  Non-Responder: 4 (100%) n (%)
  PD (progressive disease): 1 (25%) n (%)
  PR: 0 n (%)
  Responder: 0 (0%) n (%)
  UC (unchanged): 1 (25%) n (%)
AML/MDS patients [2]; DE 400/100 mg, N=6
  CR: 0 n (%)
  CRi: 0 n (%)
  MLFS: 0 n (%)
  MR (marrow response): 1 (17%) n (%)
  NE (not evaluable): 0 n (%)
  Non-Responder: 5 (83%) n (%)
  PD (progressive disease): 0 n (%)
  PR: 0 n (%)
  Responder: 1 (17%) n (%)
  UC (unchanged): 3 (50%) n (%)
AML/MDS patients [2]; DE 400/200 mg, N=7
  CR: 1 (14%) n (%)
  CRi: 1 (14%) n (%)
  MLFS: 0 n (%)
  MR (marrow response): 0 n (%)
  NE (not evaluable): 1 (14%) n (%)
  Non-Responder: 5 (71%) n (%)
  PD (progressive disease): 1 (14%) n (%)
  PR: 0 n (%)
  Responder: 2 (29%) n (%)
  UC (unchanged): 3 (43%) n (%)
AML/MDS patients [2]; DE 600/200 mg, N=14
  CR: 0 n (%)
  CRi: 1 (7%) n (%)
  MLFS: 1 (7%) n (%)
  MR (marrow response): 0 n (%)
  NE (not evaluable): 4 (29%) n (%)
  Non-Responder: 12 (86%) n (%)
  PD (progressive disease): 3 (21%) n (%)
  PR: 0 n (%)
  Responder: 2 (14%) n (%)
  UC (unchanged): 4 (29%) n (%)
AML/MDS patients [2]; DE 900/300 mg, N=5
  CR: 0 n (%)
  CRi: 0 n (%)
  MLFS: 0 n (%)
  MR (marrow response): 0 n (%)
  NE (not evaluable): 2 (40%) n (%)
  Non-Responder: 5 (100%) n (%)
  PD (progressive disease): 0 n (%)
  PR: 0 n (%)
  Responder: 0 (0%) n (%)
  UC (unchanged): 2 (40%) n (%)
AML/MDS patients [2]; DE cohort
  Median time to objective response: 22 days
AML/MDS patients [2]; DE cohort overall, 36 patients, monotherapy
  ORR: 14%
AML/MDS patients [2]; DE cohort, 400/200 mg dosing group
  ORR: 29%
AML/MDS patients [2]; DE overall, N=36
  CR: 1 (3%) n (%)
  CRi: 2 (6%) n (%)
  MLFS: 1 (3%) n (%)
  MR (marrow response): 1 (3%) n (%)
  NE (not evaluable): 8 (22%) n (%)
  Non-Responder: 31 (86%) n (%)
  PD (progressive disease): 5 (14%) n (%)
  PR: 0 n (%)
  Responder: 5 (14%) n (%)
  UC (unchanged): 13 (36%) n (%)
Flt4
  IC50: > 1 µM
OCI-AML5 xenograft
  Tumor growth: inhibited
